Reference: patent publication US5616320A, “Use of antibiotics 10381b to promote growth” (The Upjohn Company, priority 1994, dated 1997)

Legend:
Toxicity = assay: Toxicity; parameters: species or system mammals
[1] = test system: Staphylococcus epidermidis; assay: Antibacterial spectrum, disc zone of inhibition; assay type: cell-based; parameters: key: hazy; vl: very light; trace; conditions: UC 719; 1/4 inch discs, 20 μl
Method: (§1) ^1 Assays marked * used 1/4 inch (6.35 mm) discs and 20 μl
(§2) All other assays used 1/2 inch (12.7 mm) discs and 80 μl samples.
(§3) h = hazy; vl = very light; tr = trace. Assay procedures are described in
(§4) Hanka, L. J., M. R. Burch and W. T. Sokolski. Psicofuranine. IV.
(§5) Microbiological assay. Antibiot. and Chemoth. 9:432-435 (1959).

Neisseria gonorrhoeae = assay: Antibacterial spectrum, disc zone of inhibition; assay type: cell-based; parameters: key: hazy; vl: very light; trace; conditions: UC 3065; 1/4 inch discs, 20 μl
Method: as §1, §2, §3, §4, §5

Streptococcus pneumoniae = assay: Antibacterial spectrum, disc zone of inhibition; assay type: cell-based; parameters: key: hazy; vl: very light; trace; conditions: UC 9207; 1/4 inch discs, 20 μl
Method: as §1, §2, §3, §4, §5

yeasts and fungi = assay: Growth inhibition (statement in words); assay type: cell-based
Pasteurella hemolytica = assay: Antibacterial spectrum, disc zone of inhibition; assay type: cell-based; conditions: UC 6531; 1/2 inch discs, 80 μl
Method: as §1, §2, §3, §4, §5

Serratia marcescens = assay: Antibacterial spectrum, disc zone of inhibition; assay type: cell-based; conditions: UC 6888; 1/4 inch discs, 20 μl
Method: as §1, §2, §3, §4, §5

[2] = test system: Salmonella schottmuelleri; assay: Antibacterial spectrum, disc zone of inhibition; assay type: cell-based; conditions: UC 126; 1/2 inch discs, 80 μl
Method: as §1, §2, §3, §4, §5

[3] = test system: Rhodopseudomonas sphaeroides; assay: Antibacterial spectrum, disc zone of inhibition; assay type: cell-based; conditions: UC 3238; 1/2 inch discs, 80 μl
Method: as §1, §2, §3, §4, §5

Escherichia coli = assay: Antibacterial spectrum, disc zone of inhibition; assay type: cell-based; conditions: UC 51; 1/2 inch discs, 80 μl
Method: as §1, §2, §3, §4, §5

Mycobacterium avium = assay: Antibacterial spectrum, disc zone of inhibition; assay type: cell-based; conditions: UC 159; 1/2 inch discs, 80 μl
Method: as §1, §2, §3, §4, §5

Proteus vulgaris = assay: Antibacterial spectrum, disc zone of inhibition; assay type: cell-based; conditions: UC 93; 1/2 inch discs, 80 μl
Method: as §1, §2, §3, §4, §5

Clostridium perfrigens = assay: Antibacterial spectrum, disc zone of inhibition; assay type: cell-based; conditions: UC 6509; 1/2 inch discs, 80 μl
Method: as §1, §2, §3, §4, §5

Saccharomyces cerevisiae = assay: Antibacterial spectrum, disc zone of inhibition; assay type: cell-based; conditions: UC 1342
Method: as §1, §2, §3, §4, §5

Streptococcus faecalis = assay: Antibacterial spectrum, disc zone of inhibition; assay type: cell-based
Method: as §1, §2, §3, §4, §5

[4] = test system: Bordetella bronchiseptica; assay: Antibacterial spectrum, disc zone of inhibition; assay type: cell-based; conditions: UC 6481; 1/2 inch discs, 80 μl
Method: as §1, §2, §3, §4, §5

Klebsiella pneumoniae = assay: Antibacterial spectrum, disc zone of inhibition; assay type: cell-based; conditions: UC 57; 1/2 inch discs, 80 μl
Method: as §1, §2, §3, §4, §5

Pseudomonas aeruginosa = assay: Antibacterial spectrum, disc zone of inhibition; assay type: cell-based; conditions: UC 95; 1/2 inch discs, 80 μl
Method: as §1, §2, §3, §4, §5

Staphylococcus aureus = assay: Antibacterial spectrum, disc zone of inhibition; assay type: cell-based
Method: as §1, §2, §3, §4, §5

Bacteroides fragilis = assay: Antibacterial spectrum, disc zone of inhibition; assay type: cell-based; conditions: UC 6513; 1/2 inch discs, 80 μl
Method: as §1, §2, §3, §4, §5

Hemophilus influenzae = assay: Antibacterial spectrum, disc zone of inhibition; assay type: cell-based; conditions: UC 6483; 1/4 inch discs, 20 μl
Method: as §1, §2, §3, §4, §5

Bacillus subtilis = assay: Antibacterial spectrum, disc zone of inhibition; assay type: cell-based; conditions: UC 564; 1/2 inch discs, 80 μl
Method: as §1, §2, §3, §4, §5

Micrococcus luteus = assay: Antibacterial spectrum, disc zone of inhibition; assay type: cell-based; conditions: 1/2 inch discs, 80 μl
Method: as §1, §2, §3, §4, §5

Streptococcus pyogenes = assay: Antibacterial spectrum, disc zone of inhibition; assay type: cell-based; conditions: UC 152
Method: as §1, §2, §3, §4, §5

Penicillium oxalicum = assay: Antibacterial spectrum, disc zone of inhibition; assay type: cell-based; conditions: UC 1268
Method: as §1, §2, §3, §4, §5

Candida albicans = assay: Antibacterial spectrum, disc zone of inhibition; assay type: cell-based; conditions: UC 1392
Method: as §1, §2, §3, §4, §5

[5] = test system: Gram-positive bacteria, yeasts, and fungi; assay: In vitro antimicrobial activity (statement in words); assay type: cell-based
Solubility = assay type: physicochemical

For `CC(CCN(C)C(=N)N)C(N)C(=O)NC1C=CC(n2ccc(N)nc2=O)OC1C(=O)O` (centres unmarked) [Antibiotic 10381a1], the “toxicity relative to blasticidin” value (Toxicity; compared with blasticidin) was “less toxicity than blasticidin”, the toxicity (Toxicity; in mammals / versus prior art antibiotics) was “greatly reduced toxicity” and the “Zone of Inhibition” value [1] was “tr”. For the same molecule, the “Zone of Inhibition” value (Neisseria gonorrhoeae) was “tr”, the “Zone of Inhibition” value (Streptococcus pneumoniae) was “tr” and the growth inhibitory effect (yeasts and fungi) was “especially strong growth inhibitory effect”. The “Zone of Inhibition” value (Pasteurella hemolytica) was 0 mm, the “Zone of Inhibition” value (Serratia marcescens) was 0 mm and the “Zone of Inhibition” value [2] was 0 mm. For the same molecule, the “Zone of Inhibition” value [3] was 33 mm, the “Zone of Inhibition” value (Escherichia coli) was 0 mm and the “Zone of Inhibition” value (Mycobacterium avium) was 17 mm. The “Zone of Inhibition” value (Proteus vulgaris) was 0 mm, the “Zone of Inhibition” value (Clostridium perfrigens) was 18 mm and the “activity” value (Saccharomyces cerevisiae) was “active”. For the same molecule, the “Zone of Inhibition” value (Saccharomyces cerevisiae; 1/2 inch discs, 80 μl) was 31 mm, the “Zone of Inhibition” value (Streptococcus faecalis; UC 221, 1/4 inch discs, 20 μl) was 10 vl and the “activity” value (Streptococcus faecalis; UC 694) was “active”. The “Zone of Inhibition” value [4] was 0 mm, the “Zone of Inhibition” value (Klebsiella pneumoniae) was 0 mm and the “Zone of Inhibition” value (Pseudomonas aeruginosa) was 0 mm. For the same molecule, the “Zone of Inhibition” value (Staphylococcus aureus; UC 80, 1/2 inch discs, 80 μl) was 16 h, the “Zone of Inhibition” value (Staphylococcus aureus; UC 3665, 1/2 inch discs, 80 μl) was 0 mm and the “Zone of Inhibition” value (Staphylococcus aureus; UC 6685, 1/4 inch discs, 20 μl) was 0 mm. For the same molecule, the “Zone of Inhibition” value (Bacteroides fragilis) was 21 mm, the “Zone of Inhibition” value (Hemophilus influenzae) was 10 mm and the “Zone of Inhibition” value (Bacillus subtilis) was 0 mm. The “Zone of Inhibition” value (Micrococcus luteus; UC 130) was 32 mm, the “Zone of Inhibition” value (Micrococcus luteus; UC 3383) was 32 mm and the “activity” value (Streptococcus pyogenes) was “active”. For the same molecule, the “Zone of Inhibition” value (Streptococcus pyogenes; 1/2 inch discs, 80 μl) was 25 mm, the “activity” value (Penicillium oxalicum) was “active” and the “Zone of Inhibition” value (Penicillium oxalicum; 1/2 inch discs, 80 μl) was 36 mm. For the same molecule, the “activity” value (Candida albicans) was “active”, the “Zone of Inhibition” value (Candida albicans; 1/4 inch discs, 20 μl) was 12 mm and the “antimicrobial activity” value [5] was “broad spectrum antibiotic properties”. For the same molecule, the Solubility (Solubility; acetone, ethyl acetate, ether and chlorinated or saturated hydrocarbon solvents) was “Insoluble” and the Solubility (Solubility; water and lower alcohols) was “Soluble”.
